These results are taken from patent US10584117B2, “1,3,4-oxadiazole amide derivative compound as histone deacetylase 6 inhibitor, and pharmaceutical composition containing same” (Chong Kun Dang Pharmaceutical Corp., priority 2015, dated 2020).

The assay concerns the target T1, human recombinant HDAC6 (Homo sapiens, UniProt Q9UBN7).
T1 construct: purchased Calbiochem 382180
T1 sequence (Q9UBN7 1-1215): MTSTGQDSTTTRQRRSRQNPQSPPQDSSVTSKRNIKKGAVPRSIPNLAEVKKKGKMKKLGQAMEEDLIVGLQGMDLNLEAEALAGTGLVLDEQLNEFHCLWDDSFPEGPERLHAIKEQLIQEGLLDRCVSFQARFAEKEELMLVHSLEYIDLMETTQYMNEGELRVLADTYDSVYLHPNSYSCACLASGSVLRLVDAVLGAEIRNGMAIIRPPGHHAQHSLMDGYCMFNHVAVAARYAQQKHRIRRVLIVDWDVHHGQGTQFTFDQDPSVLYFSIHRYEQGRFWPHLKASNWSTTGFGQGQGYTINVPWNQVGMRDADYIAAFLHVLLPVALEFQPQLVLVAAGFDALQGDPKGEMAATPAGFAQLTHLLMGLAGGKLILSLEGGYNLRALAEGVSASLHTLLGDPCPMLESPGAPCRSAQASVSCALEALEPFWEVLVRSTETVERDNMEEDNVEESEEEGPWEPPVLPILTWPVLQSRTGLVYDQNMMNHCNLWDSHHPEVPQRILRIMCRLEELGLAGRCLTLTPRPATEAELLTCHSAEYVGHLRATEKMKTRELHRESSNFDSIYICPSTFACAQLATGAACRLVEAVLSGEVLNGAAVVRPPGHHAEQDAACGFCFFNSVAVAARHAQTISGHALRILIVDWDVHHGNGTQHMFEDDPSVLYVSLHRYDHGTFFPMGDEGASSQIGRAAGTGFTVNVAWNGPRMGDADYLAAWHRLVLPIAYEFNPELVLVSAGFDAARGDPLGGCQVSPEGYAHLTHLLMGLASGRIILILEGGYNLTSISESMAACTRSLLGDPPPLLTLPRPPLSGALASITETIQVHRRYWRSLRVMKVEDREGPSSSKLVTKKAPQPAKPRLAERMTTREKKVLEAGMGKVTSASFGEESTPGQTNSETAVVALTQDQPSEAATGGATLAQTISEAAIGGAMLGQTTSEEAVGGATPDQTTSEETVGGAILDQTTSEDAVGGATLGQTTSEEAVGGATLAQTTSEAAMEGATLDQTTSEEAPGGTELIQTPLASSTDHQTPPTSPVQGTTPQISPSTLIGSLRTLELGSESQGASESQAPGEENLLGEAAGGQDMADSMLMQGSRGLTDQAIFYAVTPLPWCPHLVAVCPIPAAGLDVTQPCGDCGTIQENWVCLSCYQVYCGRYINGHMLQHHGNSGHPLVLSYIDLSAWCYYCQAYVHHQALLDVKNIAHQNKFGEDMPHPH
The experiment in a line: HDAC enzyme activity inhibition assay (HDAC6, fluorimetric kit). Format: biochemical. Particulars: for HDAC6 selectivity (fold): HDAC6 versus HDAC1; for IC50: same protocol as the HDAC1 test. The method, boiled down: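 Fluorimetric kit assay: human recombinant HDAC1 or HDAC6 (0.3 μg) reacted with 10 μM Fluor de Lys-SIRT1 substrate and 5-fold serially diluted compound for 60 minutes at 30° C, followed by 30 minutes of developer. Fluorescence was read at Ex 360/Em 460, and IC50 values were calculated from it.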

Consider `CN1CC(C(=O)N(Cc2ccc(-c3nnc(C(F)F)o3)cc2F)c2cccc(F)c2)C1` [Compound 11325, N-(4-(5-(difluoromethyl)-1,3,4-oxadiazol-2-yl)-2-fluorobenzyl)-N-(3-fluorophenyl)-1-methylazetidine-3-carboxamide], for which the “HDAC6 selectivity (fold)” value stood at 1111 fold and the concentration for half-maximal inhibition (IC50) (commonly the concentration that inhibits the measured activity by half) was determined as 90 nM.

For the compound `CCN1CC(C(=O)N(Cc2ccc(-c3nnc(C(F)F)o3)cc2F)c2cccc(F)c2)C1` [Compound 11326, N-(4-(5-(difluoromethyl)-1,3,4-oxadiazol-2-yl)-2-fluorobenzyl)-1-ethyl-N-(3-fluorophenyl)azetidine-3-carboxamide], the “HDAC6 selectivity (fold)” value is 1754 fold and the IC50 was determined as 57 nM.

As for `CCCN1CC(C(=O)N(Cc2ccc(-c3nnc(C(F)F)o3)cc2F)c2cccc(F)c2)C1` [Compound 11327, N-(4-(5-(difluoromethyl)-1,3,4-oxadiazol-2-yl)-2-fluorobenzyl)-N-(3-fluorophenyl)-1-propylazetidine-3-carboxamide], the “HDAC6 selectivity (fold)” value is listed as 2041 fold and the IC50 is 49 nM.

For `CCCCN1CC(C(=O)N(Cc2ccc(-c3nnc(C(F)F)o3)cc2F)c2cccc(F)c2)C1` [Compound 11328, 1-butyl-N-(4-(5-(difluoromethyl)-1,3,4-oxadiazol-2-yl)-2-fluorobenzyl)-N-(3-fluorophenyl)azetidine-3-carboxamide], the “HDAC6 selectivity (fold)” value is recorded as 1235 fold and the IC50 was found to be 81 nM.

Turning to `CC(C)N1CC(C(=O)N(Cc2ccc(-c3nnc(C(F)F)o3)cc2F)c2cccc(F)c2)C1` [Compound 11329, N-(4-(5-(difluoromethyl)-1,3,4-oxadiazol-2-yl)-2-fluorobenzyl)-N-(3-fluorophenyl)-1-isopropylazetidine-3-arboxamide], the “HDAC6 selectivity (fold)” value is given as 1786 fold and the IC50 is 56 nM.

Turning to `CC(=O)N1CC(C(=O)N(Cc2ccc(-c3nnc(C(F)F)o3)cc2F)c2cccc(F)c2)C1` [Compound 11330, 1-acetyl-N-(4-(5-(difluoromethyl)-1,3,4-oxadiazol-2-yl)-2-fluorobenzyl)-N-(3-fluorophenyl)azetidine-3-carboxamide], the “HDAC6 selectivity (fold)” value is 1961 fold and the IC50 came out at 51 nM.

Consider `CCC(=O)N1CC(C(=O)N(Cc2ccc(-c3nnc(C(F)F)o3)cc2F)c2cccc(F)c2)C1` [Compound 11331, N-(4-(5-(difluoromethyl)-1,3,4-oxadiazol-2-yl)-2-fluorobenzyl)-N-(3-fluorophenyl)-1-propionylazetidine-3-carboxamide], for which the “HDAC6 selectivity (fold)” value worked out at 1786 fold and the IC50 was determined as 56 nM.

As to `CC(C)C(=O)N1CC(C(=O)N(Cc2ccc(-c3nnc(C(F)F)o3)cc2F)c2cccc(F)c2)C1` [Compound 11332, N-(4-(5-(difluoromethyl)-1,3,4-oxadiazol-2-yl)-2-fluorobenzyl)-N-(3-fluorophenyl)-1-isobutyrylazetidine-3-carboxamide], the “HDAC6 selectivity (fold)” value is on record as 2326 fold and the half-maximal inhibitory concentration (IC50) amounted to 43 nM.

For `CS(=O)(=O)N1CC(C(=O)N(Cc2ccc(-c3nnc(C(F)F)o3)cc2F)c2cccc(F)c2)C1` [Compound 11333, N-(4-(5-(difluoromethyl)-1,3,4-oxadiazol-2-yl)-2-fluorobenzyl)-N-(3-fluorophenyl)-1-(methylsulfonyl)azetidine-3-carboxamide], the “HDAC6 selectivity (fold)” value is reported as 3448 fold and the IC50 worked out at 29 nM.

On to `CCS(=O)(=O)N1CC(C(=O)N(Cc2ccc(-c3nnc(C(F)F)o3)cc2F)c2cccc(F)c2)C1` [Compound 11334, N-(4-(5-(difluoromethyl)-1,3,4-oxadiazol-2-yl)-2-fluorobenzyl)-1-(ethylsulfonyl)-N-(3-fluorophenyl)azetidine-3-carboxamide], for which the “HDAC6 selectivity (fold)” value stood at 2632 fold and the IC50 is 38 nM.
